Measurements: the supplement of paper PMC10307832

Columns and labels:
Assay in all cases: relative viability (nuclei count vs DMSO), 5 days (fraction); higher = more cells survive
NCI-H1944 = test system: NCI-H1944
Procedure, shortened: (§1)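 Relative viability is defined as nuclei in treated wells over nuclei in vehicle wells. Duplicate plates were run and medians reported. Lung cancer cell lines in 1536-well plates were dosed by pin tool one day after seeding, with one drug or with a fixed anchor-drug dose plus five library-drug doses (not always all listed) in √10 steps, and nuclei were counted after 5 days.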

SK-MES-1 = test system: SK-MES-1
Procedure, shortened: as §1

NCI-H1734 = test system: NCI-H1734
Procedure, shortened: as §1

NCI-H358 = test system: NCI-H358
Procedure, shortened: as §1

EMC-BAC-2 = test system: EMC-BAC-2
Procedure, shortened: as §1

NCI-H2087 = test system: NCI-H2087
Procedure, shortened: as §1

NCI-H1792 = test system: NCI-H1792
Procedure, shortened: as §1

LK-2 = test system: LK-2
Procedure, shortened: as §1

HCC-78 = test system: HCC-78
Procedure, shortened: as §1

ChaGo-K-1 = test system: ChaGo-K-1
Procedure, shortened: as §1

EPLC-272H = test system: EPLC-272H
Procedure, shortened: as §1

SW 1573 = test system: SW 1573
Procedure, shortened: as §1

LU99A = test system: LU99A
Procedure, shortened: as §1

HCC-827 = test system: HCC-827
Procedure, shortened: as §1

COR-L 105 = test system: COR-L 105
Procedure, shortened: as §1

LCLC-97TM1 = test system: LCLC-97TM1
Procedure, shortened: as §1

LOU-NH91 = test system: LOU-NH91
Procedure, shortened: as §1

NCI-H727 = test system: NCI-H727
Procedure, shortened: as §1

NCI-H2126 = test system: NCI-H2126
Procedure, shortened: as §1

NCI-H1650 = test system: NCI-H1650
Procedure, shortened: as §1

BEN = test system: BEN
Procedure, shortened: as §1

EKVX = test system: EKVX
Procedure, shortened: as §1

RERF-LC-KJ = test system: RERF-LC-KJ
Procedure, shortened: as §1

O=C(O)CCCCC(CCSCc1ccccc1)SCc1ccccc1 (centres undefined) [CPI-613] + CS(=O)(=O)N1CCN(Cc2cc3nc(-c4cccc5[nH]ncc45)nc(N4CCOCC4)c3s2)CC1 [Pictilisib] (partner 1 µM) showed a relative viability (NCI-H1944; first compound 5 µM) of 0.336, a relative viability (NCI-H1944; first compound 15.81 µM) of 0.371 and a relative viability (NCI-H1944; first compound 50 µM) of 0.351. The relative viability (NCI-H1944; first compound 158.11 µM) was 0.347, the relative viability (NCI-H1944; first compound 500 µM) was 0.332 and the relative viability (SK-MES-1; first compound 5 µM) was 0.368. It also gave a relative viability (SK-MES-1; first compound 15.81 µM) of 0.314, a relative viability (SK-MES-1; first compound 50 µM) of 0.363 and a relative viability (SK-MES-1; first compound 158.11 µM) of 0.399. The relative viability (SK-MES-1; first compound 500 µM) was 0.371, the relative viability (NCI-H1734; first compound 5 µM) was 0.466 and the relative viability (NCI-H1734; first compound 15.81 µM) was 0.383. The relative viability (NCI-H1734; first compound 50 µM) was 0.434, the relative viability (NCI-H1734; first compound 158.11 µM) was 0.274 and the relative viability (NCI-H1734; first compound 500 µM) was 0.113. It also gave a relative viability (NCI-H358; first compound 5 µM) of 0.355, a relative viability (NCI-H358; first compound 15.81 µM) of 0.292 and a relative viability (NCI-H358; first compound 50 µM) of 0.278. The relative viability (NCI-H358; first compound 158.11 µM) was 0.255, the relative viability (NCI-H358; first compound 500 µM) was 0.0276 and the relative viability (EMC-BAC-2; first compound 5 µM) was 0.549. It also gave a relative viability (EMC-BAC-2; first compound 15.81 µM) of 0.483, a relative viability (EMC-BAC-2; first compound 50 µM) of 0.556 and a relative viability (EMC-BAC-2; first compound 158.11 µM) of 0.556. For the same molecule, the relative viability (EMC-BAC-2; first compound 500 µM) was 0.133, the relative viability (NCI-H2087; first compound 5 µM) was 0.87 and the relative viability (NCI-H2087; first compound 15.81 µM) was 0.702. It also gave a relative viability (NCI-H2087; first compound 50 µM) of 0.733, a relative viability (NCI-H2087; first compound 158.11 µM) of 0.587 and a relative viability (NCI-H2087; first compound 500 µM) of 0.0127. The relative viability (NCI-H1792; first compound 5 µM) was 0.29, the relative viability (NCI-H1792; first compound 15.81 µM) was 0.229 and the relative viability (NCI-H1792; first compound 50 µM) was 0.272. For the same molecule, the relative viability (NCI-H1792; first compound 158.11 µM) was 0.23, the relative viability (NCI-H1792; first compound 500 µM) was 0.207 and the relative viability (LK-2; first compound 5 µM) was 0.583. For the same molecule, the relative viability (LK-2; first compound 15.81 µM) was 0.494, the relative viability (LK-2; first compound 50 µM) was 0.535 and the relative viability (LK-2; first compound 158.11 µM) was 0.554. It also gave a relative viability (LK-2; first compound 500 µM) of 0.472, a relative viability (HCC-78; first compound 5 µM) of 0.203 and a relative viability (HCC-78; first compound 15.81 µM) of 0.167. For the same molecule, the relative viability (HCC-78; first compound 158.11 µM) was 0.156, the relative viability (HCC-78; first compound 500 µM) was 0.206 and the relative viability (ChaGo-K-1; first compound 5 µM) was 0.519. It also gave a relative viability (ChaGo-K-1; first compound 15.81 µM) of 0.663, a relative viability (ChaGo-K-1; first compound 50 µM) of 0.707 and a relative viability (ChaGo-K-1; first compound 158.11 µM) of 0.612. The relative viability (ChaGo-K-1; first compound 500 µM) was 0.33, the relative viability (EPLC-272H; first compound 5 µM) was 0.251 and the relative viability (EPLC-272H; first compound 15.81 µM) was 0.28. The relative viability (EPLC-272H; first compound 50 µM) was 0.369, the relative viability (EPLC-272H; first compound 158.11 µM) was 0.246 and the relative viability (EPLC-272H; first compound 500 µM) was 0.339. For the same molecule, the relative viability (SW 1573; first compound 5 µM) was 0.532, the relative viability (SW 1573; first compound 15.81 µM) was 0.452 and the relative viability (SW 1573; first compound 50 µM) was 0.554. It also gave a relative viability (SW 1573; first compound 158.11 µM) of 0.46, a relative viability (SW 1573; first compound 500 µM) of 0.481 and a relative viability (LU99A; first compound 5 µM) of 0.289. For the same molecule, the relative viability (LU99A; first compound 15.81 µM) was 0.322, the relative viability (LU99A; first compound 50 µM) was 0.339 and the relative viability (LU99A; first compound 158.11 µM) was 0.256. It also gave a relative viability (LU99A; first compound 500 µM) of 0.0798, a relative viability (HCC-827; first compound 5 µM) of 0.94 and a relative viability (HCC-827; first compound 15.81 µM) of 0.964. The relative viability (HCC-827; first compound 50 µM) was 0.887, the relative viability (HCC-827; first compound 158.11 µM) was 0.833 and the relative viability (HCC-827; first compound 500 µM) was 0.79. It also gave a relative viability (COR-L 105; first compound 5 µM) of 0.399, a relative viability (COR-L 105; first compound 15.81 µM) of 0.377 and a relative viability (COR-L 105; first compound 50 µM) of 0.38. It also gave a relative viability (COR-L 105; first compound 158.11 µM) of 0.328, a relative viability (COR-L 105; first compound 500 µM) of 0.288 and a relative viability (LCLC-97TM1; first compound 5 µM) of 0.191. The relative viability (LCLC-97TM1; first compound 15.81 µM) was 0.164, the relative viability (LCLC-97TM1; first compound 50 µM) was 0.174 and the relative viability (LCLC-97TM1; first compound 158.11 µM) was 0.192. It also gave a relative viability (LCLC-97TM1; first compound 500 µM) of 0.0531, a relative viability (LOU-NH91; first compound 5 µM) of 0.499 and a relative viability (LOU-NH91; first compound 15.81 µM) of 0.519. It also gave a relative viability (LOU-NH91; first compound 50 µM) of 0.541, a relative viability (LOU-NH91; first compound 158.11 µM) of 0.532 and a relative viability (LOU-NH91; first compound 500 µM) of 0.511. For the same molecule, the relative viability (NCI-H727; first compound 5 µM) was 0.359, the relative viability (NCI-H727; first compound 15.81 µM) was 0.348 and the relative viability (NCI-H727; first compound 50 µM) was 0.348. For the same molecule, the relative viability (NCI-H727; first compound 158.11 µM) was 0.33, the relative viability (NCI-H727; first compound 500 µM) was 0.0223 and the relative viability (NCI-H2126; first compound 5 µM) was 0.539. For the same molecule, the relative viability (NCI-H2126; first compound 15.81 µM) was 0.457, the relative viability (NCI-H2126; first compound 50 µM) was 0.499 and the relative viability (NCI-H2126; first compound 158.11 µM) was 0.395. For the same molecule, the relative viability (NCI-H2126; first compound 500 µM) was 0.393, the relative viability (NCI-H1650; first compound 5 µM) was 0.597 and the relative viability (NCI-H1650; first compound 15.81 µM) was 0.477. It also gave a relative viability (NCI-H1650; first compound 50 µM) of 0.638, a relative viability (NCI-H1650; first compound 158.11 µM) of 0.109 and a relative viability (NCI-H1650; first compound 500 µM) of 0.0271. It also gave a relative viability (BEN; first compound 5 µM) of 0.527, a relative viability (BEN; first compound 15.81 µM) of 0.423 and a relative viability (BEN; first compound 50 µM) of 0.503. It also gave a relative viability (BEN; first compound 158.11 µM) of 0.452, a relative viability (BEN; first compound 500 µM) of 0.495 and a relative viability (EKVX; first compound 5 µM) of 0.43. The relative viability (EKVX; first compound 15.81 µM) was 0.451, the relative viability (EKVX; first compound 50 µM) was 0.509 and the relative viability (EKVX; first compound 158.11 µM) was 0.415. The relative viability (EKVX; first compound 500 µM) was 0.406, the relative viability (RERF-LC-KJ; first compound 5 µM) was 0.455 and the relative viability (RERF-LC-KJ; first compound 15.81 µM) was 0.496. The relative viability (RERF-LC-KJ; first compound 50 µM) was 0.605, the relative viability (RERF-LC-KJ; first compound 158.11 µM) was 0.558 and the relative viability (RERF-LC-KJ; first compound 500 µM) was 0.438.
